For 7 compounds, EC50 results are on record in ChEMBL document CHEMBL1154893, “Altaicalarins A-D, cytotoxic bisabolane sesquiterpenes from Ligularia altaica” (J Nat Prod, 2010).

For one experiment, the system named is MCF7. Kind of experiment: Cytotoxicity against human MCF7 cells after 48 hrs by SRB assay. The conditions noted are these: MCF7, 48 h.
A short description of experiment [1]: Cytotoxicity against human vincristine resistant KBVIN cells after 48 hrs by SRB assay.
A further experiment deals with A549. In words: Cytotoxicity against human A549 cells after 48 hrs by SRB assay. Particulars: A549, 48 h.
The subject of a further experiment is KB. Kind of experiment: Cytotoxicity against human KB cells after 48 hrs by SRB assay.

Values after ≈ are worked out from the molar mass of the structure shown.

As for `C=C(C(CC=C(C)C)OC(=O)/C(C)=C\C)[C@@H]1C[C@@H]2O[C@]2(C)C(=O)[C@H]1OC(C)=O` (stereo partly drawn) [ALTAICALARIN C], the EC50 in the experiment on MCF7 is 7.7 µg/mL (≈ 19.7 µM); in experiment [1], 7.6 µg/mL (≈ 19.5 µM); in the experiment on A549, 11.4 µg/mL (≈ 29.2 µM); with KB, 10.4 µg/mL (≈ 26.6 µM).

For the compound `C=C(c1ccc(C)c(O)c1O)C(CC=C(C)C)OC(=O)/C(C)=C\C` (stereo not drawn) [ALTAICALARIN B], the EC50 with MCF7 was 10.8 µg/mL (≈ 32.7 µM); in experiment [1], 15.9 µg/mL (≈ 48.1 µM); in the experiment with A549, more than 20 µg/mL; in the experiment on KB it was 11.8 µg/mL (≈ 35.7 µM).

Regarding `C=C(C(CC1OC1(C)C)OC(=O)/C(C)=C\C)[C@@H]1[C@H](OC(=O)/C(C)=C\C)[C@@H]2O[C@]2(C)C(=O)[C@H]1OC(C)=O` (stereo partly drawn) [ALTAICALARIN D], the EC50 with MCF7 is more than 20 µg/mL; in experiment [1], 18.9 µg/mL (≈ 37.5 µM); in the experiment with A549, more than 20 µg/mL; with KB it was more than 20 µg/mL.

Take `C=C(C(CC(O)C(C)(C)O)OC(=O)/C(C)=C\C)[C@H]1C[C@H]2O[C@@]2(C)C(OC(=O)/C(C)=C\C)[C@H]1OC(C)=O` (stereo partly drawn): the EC50 (with MCF7; in experiment [1]; in the experiment with A549; in the experiment with KB) was more than 20 µg/mL in each case.

Take `C=C(c1cc(O)c(C)c(O)c1OC(C)=O)C(CC=C(C)C)OC(=O)/C(C)=C\C` (stereo not drawn) [ALTAICALARIN A]: the EC50 in the experiment on MCF7 worked out at 0.8 µg/mL (≈ 2.06 µM); in experiment [1] it was 0.9 µg/mL (≈ 2.32 µM); in the experiment on A549 it was 3.4 µg/mL (≈ 8.75 µM); in the experiment with KB, 1 µg/mL (≈ 2.57 µM).

Consider `COc1cc([C@@H]2c3cc4c(cc3[C@@H](O[C@@H]3O[C@@H]5CO[C@@H](C)O[C@H]5[C@H](O)[C@H]3O)[C@H]3COC(=O)[C@H]23)OCO4)cc(OC)c1O` [ETOPOSIDE], for which the EC50 with MCF7 came to 16.4 µg/mL (≈ 27.9 µM); in experiment [1], 8.8 µg/mL (≈ 15 µM); in the experiment with A549 it was 0.4 µg/mL (≈ 0.68 µM); in the experiment with KB, 3.9 µg/mL (≈ 6.63 µM).

Consider `C=C(C(CC1OC1(C)C)OC(=O)/C(C)=C\C)[C@H]1C[C@H]2O[C@@]2(C)C[C@H]1OC(=O)/C(C)=C\C` (stereo partly drawn), for which the concentration for a half-maximal effect (EC50) with MCF7 is more than 20 µg/mL; in experiment [1], 11.4 µg/mL (≈ 26.4 µM); in the experiment on A549, more than 20 µg/mL; in the experiment with KB, more than 20 µg/mL.
